# Test results: patent US6794516B2, “Synthesis of clasto-lactacystin β-lactone and analogs thereof” (Millennium Pharmaceuticals, Inc., priority 1997, dated 2004)
# “Also recorded” adds a separate entry of the source.
# Columns and labels:
# [1] = target: T1, PA28-activated 20S proteasome (Homo sapiens, UniProt P28074); test: Inactivation of the chymotrypsin-like activity of PA28-activated 20S proteasome (Suc-Leu-Leu-Val-Tyr-AMC); assay type: biochemical; settings: for kinact/KI: rate of enzyme inactivation, chymotrypsin-like activity of PA28-activated 20S proteasome, 37° C., pH 8.0, read-out: Kobs/[I]
# T1 construct: from tissue
# Protocol: Purification of 20S proteasome and proteasome activator PA28 was performed as previously described (Dick et al., J. Biol. Chem. 271:7273 (1996)).
# 2 mL of assay buffer (20 mM HEPES, 0.5 mM EDTA, pH 8.0) and Suc-Leu-Leu-Val-Tyr-AMC in dimethyl sulfoxide were added to a 3 mL fluorescent cuvette, and the cuvette was placed in the jacketed cell holder of a Hitachi F-2000 fluorescence spectrophotometer. The temperature was maintained at 37° C. by a circulating water bath. 0.34 mg of PA28 were added and the reaction progress was monitored by the increase in fluorescence at 440 nm (λex=380 nm) that accompanies production of free AMC. […] After reaching a steady state of substrate hydrolysis, lactacystin was added to a final concentration of […], and the reaction was monitored for 1 h. The fluorescence (F) versus time (t) data were collected on a microcomputer using LAB CALC (Galactic) software. kinact values were estimated by a nonlinear least-squares fit of the data to the first order equation:
# where C=Ft=0 and A=Ft=∞−Ft=0.
# [2] = system: C2C12 cells; test: Inhibition of intracellular protein degradation in C2C12 cells; assay type: cell-based, mouse; settings: for IC50: Mus musculus, C2C12 cells, 35S-methionine labelled, TCA soluble radioactivity
# Protocol: C2C12 cells (a mouse myoblast line) were labeled for 48 hrs with ^35S-methionine. The cells were then washed and preincubated for 2 hrs in the same media supplemented with 2 mM unlabelled methionine. The media was removed and replaced with a fresh aliquot of the preincubation media containing 50% serum, and a concentration of the compound to be tested. The media was then removed and made up to 10% TCA and centrifuged. The TCA soluble radioactivity was counted. Inhibition of proteolysis was calculated as the percent decrease in TCA soluble radioactivity.
# [3] = physchem; settings: buffer, pH 7.8
# Protocol: (§1) The half-lives (ti1/2) for hydrolysis of β-lactone analogs to the corresponding dihydroxy acids were measured at 37° C. at a concentration of 200 mM in 20 mM HEPES, 0.5 mM EDTA, pH 7.8. Absorbance was measured for at least five half-lives (approximately 1 hour) at 230 nm, the wavelength at which there is the greatest difference in extinction coefficients for the lactone and dihydroxy.
# [4] = Lactone hydrolysis to the dihydroxy acid; settings: for half-life at 200 mM: HEPES/EDTA buffer, pH 7.8
# Protocol: as §1
# [5] = system: Male Sprague Dawley rats; test: Middle cerebral artery (MCA) occlusion/reperfusion: infarct size and neurological score; assay type: in vivo, rat; settings: for infarct volume: rat MCA occlusion
# Protocol: Male Sprague Dawley rats (250-400 g) were anesthetized with haloethane and subjected to middle cerebral artery (MCA) occlusion using a nylon filament for 2 h. Subsequently, the filament was removed and reperfusion of the infarcted tissue occurred for 24 hours before the rat was sacrificed.
# Immediately after the filament was withdrawn, the animals were evaluated using a neurological scoring system. Neurological scores were expressed on a scale from 0 to 10, with 0 representing no neurological deficit and 10 representing severe neurological deficit. After 24 hours and before sacrifice, animals were evaluated a second time using the same neurological scoring system.
# Staining of coronal sections (2.0 mm×7-8) with triphenyltetrazolium chloride (TTC) taken throughout the brain were evaluated under blinded conditions using image analysis to determine infarct size.
# Rats were given i.v. bolus injections (1.0 mL/kg) of either vehicle (50% propylene glycol/saline; n=8) or 7-n-propyl-clasto-lactacystin β-lactone (3b) (0.3 mg/kg; n=7) at 2 hours after the start of the occlusion. Two additional groups of rats were given i.v. bolus injections (1.0 mL/kg) of 3b at 0 minutes, 2 hours, and 6 hours after the start of the occlusion. One group (0.1 mg/kg×3; n=6) received 0.1 mg/kg at each of these times, while another group (0.3 mg/kg×3; n=7) received 0.3 mg/kg at each of the three timepoints.
Compound,kinact/KI [1] [M⁻¹ s⁻¹],IC50 [2] [nM],half-life at 200 mM [4] [min],also measured
"CC(C)[C@H](O)[C@@]12NC(=O)[C@H](C)[C@@H]1OC2=O [Compound 2, clasto-lactacystin β-lactone]",20000,700 to 1100,,half-life at 200 mM [3]: 13 min
CC[C@H]1C(=O)N[C@@]2([C@@H](O)C(C)C)C(=O)O[C@@H]12 [Compound 3a],39000,320,15.3,
"CCC[C@H]1C(=O)N[C@@]2([C@@H](O)C(C)C)C(=O)O[C@@H]12 [Compound 3b, 7-n-propyl-clasto-lactacystin β-lactone]",46500,290,15.3,"neurological score ([5]; i.v. 0.1 mg/kg×3 dosage group): No significant improvement; neurological score ([5]; i.v. 0.3 mg/kg×3 dosage group): No significant improvement; infarct volume decreased by ([5]; rat MCA occlusion 2 h, reperfusion 24 h, single i.v. dose 0.3 mg/kg at 2 hours after start of occlusion): 50%; infarct volume ([5]; i.v. 0.1 mg/kg×3 (0 minutes, 2 hours, 6 hours)): not significantly decreased; infarct volume ([5]; i.v. 0.3 mg/kg×3 (0 minutes, 2 hours, 6 hours)): not significantly decreased; mean neurological score at 24 hours ([5]; scale 0 to 10 (10 = severe deficit), single i.v. 0.3 mg/kg dose, vehicle 8.7±0.6): 4±1; neurological improvement ([5]; single i.v. 0.3 mg/kg dose, versus vehicle at 24 hours): 60%"
CCCC[C@H]1C(=O)N[C@@]2([C@@H](O)C(C)C)C(=O)O[C@@H]12 [Compound 3c],38000,330,17,
CC(C)C[C@H]1C(=O)N[C@@]2([C@@H](O)C(C)C)C(=O)O[C@@H]12 [Compound 3d],17000,510,16.8,
CO[C@H]1C(=O)N[C@@]2([C@@H](O)C(C)C)C(=O)O[C@@H]12 [Compound 3f],82200,86000,3.7,relative hydrolysis rate ([4]; compared to 2): more rapidly hydrolyzed; relative potency in the enzyme assay ([1]; compared to the other compounds of Table 1 / to 2): most potent; relative potency in cell culture ([2]; compared to 2): less potent than 2; also recorded: much weaker activity
